Assay results reported in article PMC10174618, “Monoterpenoid aryl hydrocarbon receptor allosteric antagonists protect against ultraviolet skin damage in female mice” (Nature Communications, 2023).

Experiments:
Experiment in all cases: biochemical
Parameters in all cases: KINOMEscan scanMAX active site-directed competition binding assay, percent of control, 468 kinases
Details in all cases: competition binding, percent of control
FER = FER (Homo sapiens, UniProt P16591)
Method in brief: (§1)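 KINOMEscan active site-directed competition binding assay against 468 human kinases with 100 μM S-carvone. Binding expressed as % of control, with 35% of control as the inhibition threshold.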

EPHA4 = EPHA4 (Homo sapiens, UniProt P54764)
Method in brief: as §1

ALK(C1156Y) = ALK(C1156Y) (Homo sapiens, UniProt Q9UM73, C1156Y)
Method in brief: as §1

[1] = molecular target: T1, ABL1(H396P)-phosphorylated (Homo sapiens, UniProt P00519, H396P)
T1 construct: phosphorylated
Method in brief: as §1

ERBB3 = ERBB3 (Homo sapiens, UniProt P21860)
Method in brief: as §1

ULK1 = ULK1 (Homo sapiens, UniProt O75385)
Chain of ULK1 (O75385 whole entry): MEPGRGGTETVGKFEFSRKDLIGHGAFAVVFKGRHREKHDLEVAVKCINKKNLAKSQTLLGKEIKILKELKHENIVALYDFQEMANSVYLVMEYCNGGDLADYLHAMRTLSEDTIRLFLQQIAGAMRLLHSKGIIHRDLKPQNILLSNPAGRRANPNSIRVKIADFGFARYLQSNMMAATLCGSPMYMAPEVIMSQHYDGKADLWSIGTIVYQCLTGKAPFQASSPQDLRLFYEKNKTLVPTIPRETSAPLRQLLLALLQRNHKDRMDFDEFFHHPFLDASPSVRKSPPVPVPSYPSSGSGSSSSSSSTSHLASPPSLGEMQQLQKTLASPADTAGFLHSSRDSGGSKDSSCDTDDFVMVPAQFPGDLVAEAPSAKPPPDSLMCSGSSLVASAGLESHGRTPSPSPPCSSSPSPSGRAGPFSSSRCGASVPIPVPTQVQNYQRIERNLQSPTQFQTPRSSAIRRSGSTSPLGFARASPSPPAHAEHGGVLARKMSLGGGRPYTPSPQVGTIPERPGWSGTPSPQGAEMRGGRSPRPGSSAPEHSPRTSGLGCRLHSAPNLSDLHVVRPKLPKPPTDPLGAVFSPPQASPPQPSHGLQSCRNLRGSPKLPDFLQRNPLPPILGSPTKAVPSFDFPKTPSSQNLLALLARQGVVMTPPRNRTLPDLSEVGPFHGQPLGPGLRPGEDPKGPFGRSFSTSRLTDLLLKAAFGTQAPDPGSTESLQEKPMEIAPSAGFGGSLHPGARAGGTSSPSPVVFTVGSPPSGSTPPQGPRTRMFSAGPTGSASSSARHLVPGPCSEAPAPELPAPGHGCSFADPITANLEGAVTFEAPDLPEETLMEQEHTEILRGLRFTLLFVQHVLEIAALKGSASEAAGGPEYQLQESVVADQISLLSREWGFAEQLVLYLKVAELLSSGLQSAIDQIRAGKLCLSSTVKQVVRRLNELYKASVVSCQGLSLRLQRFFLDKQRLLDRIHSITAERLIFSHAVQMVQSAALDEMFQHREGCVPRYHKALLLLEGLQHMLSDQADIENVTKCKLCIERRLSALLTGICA
Method in brief: as §1

CSNK1E = CSNK1E (Homo sapiens, UniProt P49674)
Method in brief: as §1

[2] = molecular target: T2, RSK3(Kin.Dom.1-N-terminal) (Homo sapiens, UniProt Q15349)
T2 construct: gene RPS6KA2; Kin.Dom.1-N-terminal
Method in brief: as §1

BLK = BLK (Homo sapiens, UniProt P51451)
Chain of BLK (P51451 whole entry): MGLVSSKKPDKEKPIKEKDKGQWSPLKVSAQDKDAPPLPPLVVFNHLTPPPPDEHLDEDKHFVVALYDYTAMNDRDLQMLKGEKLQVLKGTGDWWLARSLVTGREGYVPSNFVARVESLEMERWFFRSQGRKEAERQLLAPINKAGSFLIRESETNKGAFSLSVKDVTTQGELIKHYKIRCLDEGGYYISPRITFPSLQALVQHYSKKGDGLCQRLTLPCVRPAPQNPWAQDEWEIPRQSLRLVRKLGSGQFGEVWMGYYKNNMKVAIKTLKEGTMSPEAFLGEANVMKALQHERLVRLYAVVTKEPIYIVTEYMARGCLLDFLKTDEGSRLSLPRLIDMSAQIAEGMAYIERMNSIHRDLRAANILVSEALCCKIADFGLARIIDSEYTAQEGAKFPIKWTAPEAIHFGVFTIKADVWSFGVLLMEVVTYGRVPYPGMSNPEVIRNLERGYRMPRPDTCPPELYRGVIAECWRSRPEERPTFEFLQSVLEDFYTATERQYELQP
Method in brief: as §1

FLT3(K663Q) = FLT3(K663Q) (Homo sapiens, UniProt P36888, K663Q)
Method in brief: as §1

PIP5K1A = PIP5K1A (Homo sapiens, UniProt Q99755)
Method in brief: as §1

SGK = molecular target: T3, SGK (Homo sapiens, UniProt O00141)
T3 construct: gene SGK1
Method in brief: as §1

LIMK2 = LIMK2 (Homo sapiens, UniProt P53671)
Chain of LIMK2 (P53671 whole entry): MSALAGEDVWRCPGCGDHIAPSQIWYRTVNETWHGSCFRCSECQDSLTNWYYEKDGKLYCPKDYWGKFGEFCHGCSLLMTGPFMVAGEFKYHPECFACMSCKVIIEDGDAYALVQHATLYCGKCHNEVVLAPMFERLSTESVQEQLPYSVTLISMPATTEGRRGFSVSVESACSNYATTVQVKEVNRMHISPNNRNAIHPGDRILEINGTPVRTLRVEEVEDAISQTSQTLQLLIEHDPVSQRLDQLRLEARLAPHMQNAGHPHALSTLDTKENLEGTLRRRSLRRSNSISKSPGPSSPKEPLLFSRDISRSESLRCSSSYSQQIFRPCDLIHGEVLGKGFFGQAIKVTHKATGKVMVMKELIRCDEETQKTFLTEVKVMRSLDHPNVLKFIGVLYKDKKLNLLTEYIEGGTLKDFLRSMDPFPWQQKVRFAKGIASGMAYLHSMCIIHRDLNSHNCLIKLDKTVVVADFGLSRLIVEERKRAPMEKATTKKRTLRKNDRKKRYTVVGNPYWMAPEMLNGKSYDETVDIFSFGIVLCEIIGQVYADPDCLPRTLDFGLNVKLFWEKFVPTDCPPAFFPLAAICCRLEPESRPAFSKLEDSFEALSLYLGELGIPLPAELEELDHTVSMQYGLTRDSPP
Method in brief: as §1

NEK4 = NEK4 (Homo sapiens, UniProt P51957)
Chain of NEK4 (P51957 whole entry): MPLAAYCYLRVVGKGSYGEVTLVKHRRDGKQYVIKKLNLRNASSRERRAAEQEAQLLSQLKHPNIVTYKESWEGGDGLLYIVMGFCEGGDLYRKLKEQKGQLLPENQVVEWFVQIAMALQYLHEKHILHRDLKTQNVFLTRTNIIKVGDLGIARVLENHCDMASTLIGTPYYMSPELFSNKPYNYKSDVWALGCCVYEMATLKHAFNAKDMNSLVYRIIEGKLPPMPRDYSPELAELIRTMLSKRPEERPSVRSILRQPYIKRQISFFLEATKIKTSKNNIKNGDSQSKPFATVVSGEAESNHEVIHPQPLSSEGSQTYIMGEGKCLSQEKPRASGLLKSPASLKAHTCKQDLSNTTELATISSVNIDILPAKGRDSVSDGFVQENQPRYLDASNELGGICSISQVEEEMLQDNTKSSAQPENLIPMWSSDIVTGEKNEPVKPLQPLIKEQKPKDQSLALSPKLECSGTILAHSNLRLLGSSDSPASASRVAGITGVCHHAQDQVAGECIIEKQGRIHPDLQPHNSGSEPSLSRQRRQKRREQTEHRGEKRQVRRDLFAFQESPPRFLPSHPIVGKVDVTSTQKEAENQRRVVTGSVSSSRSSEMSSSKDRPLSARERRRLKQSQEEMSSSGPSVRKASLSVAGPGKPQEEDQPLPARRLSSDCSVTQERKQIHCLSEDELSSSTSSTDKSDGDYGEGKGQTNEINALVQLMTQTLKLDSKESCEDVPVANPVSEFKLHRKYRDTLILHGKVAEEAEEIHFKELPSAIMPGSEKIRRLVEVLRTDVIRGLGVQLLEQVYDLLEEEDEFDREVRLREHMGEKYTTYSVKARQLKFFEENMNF
Method in brief: as §1

FGFR2 = FGFR2 (Homo sapiens, UniProt P21802)
Chain of FGFR2 (P21802 whole entry): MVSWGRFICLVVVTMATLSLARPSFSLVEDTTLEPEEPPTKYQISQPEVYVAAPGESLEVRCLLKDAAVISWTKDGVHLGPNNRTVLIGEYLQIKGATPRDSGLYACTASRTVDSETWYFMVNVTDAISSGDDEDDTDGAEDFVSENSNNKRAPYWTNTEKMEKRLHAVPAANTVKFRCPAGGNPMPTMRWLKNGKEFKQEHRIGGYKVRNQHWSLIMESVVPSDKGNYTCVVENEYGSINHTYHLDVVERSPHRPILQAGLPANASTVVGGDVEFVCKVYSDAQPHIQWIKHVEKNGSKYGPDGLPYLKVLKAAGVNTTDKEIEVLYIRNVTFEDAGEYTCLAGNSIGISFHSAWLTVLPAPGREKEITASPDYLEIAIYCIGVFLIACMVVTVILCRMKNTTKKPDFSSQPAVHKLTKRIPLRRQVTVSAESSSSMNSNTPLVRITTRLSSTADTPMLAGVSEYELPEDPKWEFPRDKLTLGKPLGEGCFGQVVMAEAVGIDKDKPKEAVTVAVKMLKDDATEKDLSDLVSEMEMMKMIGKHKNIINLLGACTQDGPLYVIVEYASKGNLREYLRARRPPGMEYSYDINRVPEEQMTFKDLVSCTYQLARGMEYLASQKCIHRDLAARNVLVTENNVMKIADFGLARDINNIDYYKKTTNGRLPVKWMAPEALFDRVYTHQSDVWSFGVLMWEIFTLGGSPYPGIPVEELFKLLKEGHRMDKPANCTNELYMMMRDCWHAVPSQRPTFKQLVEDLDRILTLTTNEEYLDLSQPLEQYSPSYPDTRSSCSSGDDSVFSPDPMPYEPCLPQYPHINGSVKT
Method in brief: as §1

NEK7 = NEK7 (Homo sapiens, UniProt Q8TDX7)
Method in brief: as §1

EPHA1 = EPHA1 (Homo sapiens, UniProt P21709)
Chain of EPHA1 (P21709 whole entry): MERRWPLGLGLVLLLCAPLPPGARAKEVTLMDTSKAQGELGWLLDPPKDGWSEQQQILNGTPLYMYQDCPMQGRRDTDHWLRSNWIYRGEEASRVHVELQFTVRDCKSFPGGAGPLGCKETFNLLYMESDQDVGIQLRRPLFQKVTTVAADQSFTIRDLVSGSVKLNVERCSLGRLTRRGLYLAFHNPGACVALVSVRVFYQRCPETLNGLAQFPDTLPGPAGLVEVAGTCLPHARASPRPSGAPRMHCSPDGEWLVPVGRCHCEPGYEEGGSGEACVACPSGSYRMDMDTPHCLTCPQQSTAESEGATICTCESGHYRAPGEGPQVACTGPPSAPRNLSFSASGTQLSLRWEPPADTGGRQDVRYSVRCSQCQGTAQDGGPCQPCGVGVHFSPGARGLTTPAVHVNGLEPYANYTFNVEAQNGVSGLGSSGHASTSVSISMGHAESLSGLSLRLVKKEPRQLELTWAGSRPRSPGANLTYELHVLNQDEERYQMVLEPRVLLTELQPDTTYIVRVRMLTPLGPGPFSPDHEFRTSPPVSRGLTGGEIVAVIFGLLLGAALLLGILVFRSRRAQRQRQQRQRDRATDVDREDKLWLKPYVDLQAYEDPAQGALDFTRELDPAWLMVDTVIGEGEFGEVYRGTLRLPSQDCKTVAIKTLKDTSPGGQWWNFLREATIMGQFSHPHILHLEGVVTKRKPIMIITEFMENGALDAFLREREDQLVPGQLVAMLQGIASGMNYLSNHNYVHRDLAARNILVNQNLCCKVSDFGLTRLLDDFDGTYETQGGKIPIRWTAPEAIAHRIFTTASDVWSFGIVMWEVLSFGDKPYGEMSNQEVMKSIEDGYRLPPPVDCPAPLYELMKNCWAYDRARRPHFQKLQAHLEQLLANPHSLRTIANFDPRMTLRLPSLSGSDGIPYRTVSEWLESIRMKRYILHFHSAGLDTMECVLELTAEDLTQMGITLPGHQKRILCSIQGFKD
Method in brief: as §1

[3] = molecular target: T4, ABL1(M351T)-phosphorylated (Homo sapiens, UniProt P00519, M351T)
T4 construct: phosphorylated
Method in brief: as §1

HIPK1 = HIPK1 (Homo sapiens, UniProt Q86Z02)
Method in brief: as §1

EPHB4 = EPHB4 (Homo sapiens, UniProt P54760)
Method in brief: as §1

TTK = TTK (Homo sapiens, UniProt P33981)
Method in brief: as §1

- remaining binding at 100 µM (FER): 75%
- remaining binding at 100 µM (EPHA4): 84%
- remaining binding at 100 µM (ALK(C1156Y)): 70%
- remaining binding at 100 µM [1]: 65%
- remaining binding at 100 µM (ERBB3): 78%
- remaining binding at 100 µM (ULK1): 100%
- remaining binding at 100 µM (CSNK1E): 90%
- remaining binding at 100 µM [2]: 94%
- remaining binding at 100 µM (BLK): 80%
- remaining binding at 100 µM (FLT3(K663Q)): 95%
- remaining binding at 100 µM (PIP5K1A): 98%
- remaining binding at 100 µM (SGK): 70%
- remaining binding at 100 µM (LIMK2): 90%
- remaining binding at 100 µM (NEK4): 97%
- remaining binding at 100 µM (FGFR2): 80%
- remaining binding at 100 µM (NEK7): 74%
- remaining binding at 100 µM (EPHA1): 82%
- remaining binding at 100 µM [3]: 96%
- remaining binding at 100 µM (HIPK1): 61%
- remaining binding at 100 µM (EPHB4): 68%
- remaining binding at 100 µM (TTK): 80%
Compound: C=C(C)[C@H]1CC=C(C)C(=O)C1 [S-carvone]
